The values that follow come from US8362000B2, “Azetidinyl diamides as monoacylglycerol lipase inhibitors” (Janssen Pharmaceutica NV, priority 2009, dated 2013).

Changes are numbered by the printed parent chain. Read-outs that look alike come from different tables or passages of the source.

The target of experiment [1] is T1, purified wild type MGL (wt-MGLL 6H-11-313) (Homo sapiens, UniProt Q99685).
T1 sequence (Q99685 1-303): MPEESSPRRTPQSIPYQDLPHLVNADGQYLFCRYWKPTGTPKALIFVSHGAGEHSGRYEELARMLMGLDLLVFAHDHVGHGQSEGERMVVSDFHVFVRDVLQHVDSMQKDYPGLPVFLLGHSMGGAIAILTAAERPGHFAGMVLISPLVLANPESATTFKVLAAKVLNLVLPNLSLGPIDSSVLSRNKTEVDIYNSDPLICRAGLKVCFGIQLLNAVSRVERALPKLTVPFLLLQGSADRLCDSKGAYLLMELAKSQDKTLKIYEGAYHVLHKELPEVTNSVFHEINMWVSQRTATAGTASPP

A further experiment addresses T2, MGL (Rattus norvegicus, UniProt Q8R431).
T2 construct: one g rat brain was homogenized using a Polytron homogenizer; from tissue; host or cells: rat brain homogenate
T2 sequence (Q8R431 1-303): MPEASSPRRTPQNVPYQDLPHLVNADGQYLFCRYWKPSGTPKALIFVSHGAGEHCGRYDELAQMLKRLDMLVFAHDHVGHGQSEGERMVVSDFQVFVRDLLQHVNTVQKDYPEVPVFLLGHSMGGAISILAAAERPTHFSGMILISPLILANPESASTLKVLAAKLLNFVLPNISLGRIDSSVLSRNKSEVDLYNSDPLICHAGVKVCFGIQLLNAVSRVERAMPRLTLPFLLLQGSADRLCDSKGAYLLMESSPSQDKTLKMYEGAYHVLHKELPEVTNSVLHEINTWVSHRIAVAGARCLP
Kind of experiment: 2-AG accumulation assay in rat brain homogenate. The experiment is classed as biochemical. As to conditions: rat brain homogenate; compound 1 μM; 2-AG accumulation as percent of vehicle; read-out: Rat Brain 2AG % VehCntrl (%) @ 1 μM.

The next experiment has as its target T3, mutant MGL (Homo sapiens, UniProt Q99685, L169S/L176S).
T3 sequence (Q99685 1-303 L169S/L176S): T1 sequence (Q99685 1-303) with L169S, L176S
Nature of the experiment: MGL ThermoFluor assay - mutant. The experiment is classed as binding. A general note: DSF heats the sample and reads unfolding from a dye or from intrinsic fluorescence.

[2] abbreviates: compound concentration measured by qNMR, read-out: MGL mutant ThermoFluor qKd (using qNMR conc.).
The mark [3] stands for this setting: ThermoFluor, compound concentration measured by qNMR, read-out: MGL mutant ThermoFluor qKd (using qNMR conc.).
The mark [4] stands for this setting: ThermoFluor concentration-response, read-out: MGL mutant ThermoFluor Kd.
The mark [5] stands for this setting: ThermoFluor, compound concentration measured by qNMR, read-out: MGL mutant ThermoFluor qKd (μM) (using qNMR conc.).
The mark [6] stands for this setting: ThermoFluor thermal stability binding assay, read-out: MGL mutant ThermoFluor Kd.

Consider `O=C(c1ccc2c(c1)CCN2c1ccc(F)cc1)N1CC(N2CCN(C(=O)c3cscn3)CC2)C1` [Cpd 1081], for which, in experiment [1], the midpoint of inhibition, the IC50, lay at 9 nM. In addition, the 2-AG accumulation, % of vehicle control at 1 µM at MGL stood at 622%. In addition, on mutant MGL (setting [2]), the Kd was determined as 0.019 µM.
As for `COc1ccc(-n2ccc3cc(C(=O)N4CC(N5CCN(C(=O)c6ccc[nH]6)CC5)C4)ccc32)cn1` [Cpd 1176, 1-(6-Methoxypyridin-3-yl)-5-({3-[4-(1H-pyrrol-2-ylcarbonyl)piperazin-1-yl]azetidin-1-yl}carbonyl)-1H-indole], the IC50 (as a rule, the concentration needed to halve the response being measured) in experiment [1] came to 70 nM. Also, the 2-AG accumulation, % of vehicle control at 1 µM on MGL turned out to be 378%. Moreover, the Kd on mutant MGL (setting [3]) came out at 0.161 µM.
In the same order, the values of `O=C(c1cc(-c2ccc(Cl)cc2)n(-c2ccc(Cl)c(Cl)c2)n1)N1CC(N2CCN(C(=O)c3nccs3)CC2)C1` [Cpd 1083] are 9 nM, 299% and 0.065 µM.
The compound `O=C(c1nn(-c2ccc(Cl)cc2Cl)c2c1CSC/C2=C\c1ccc(F)cc1)N1CC(N2CCN(C(=O)C(F)(F)F)CC2)C1` [Cpd 1022] gave an IC50 in experiment [1] of 67 nM. Further, the 2-AG accumulation, % of vehicle control at 1 µM at MGL turned out to be 189%. Moreover, the Kd amounted to 0.228 µM on mutant MGL (setting [4]) and 1.06 µM on mutant MGL (setting [2]).
Consider `CC(C)Cc1ccc(C(=O)N2CC(N3CCN(C(=O)c4nccs4)CC3)C2)cc1` [Cpd 891], for which the concentration for half-maximal inhibition (IC50) in experiment [1] is < 5 nM. Moreover, the 2-AG accumulation, % of vehicle control at 1 µM on MGL was determined as 422%. Besides, the Kd at mutant MGL (setting [4]) was 0.008 µM.
Take `Cc1c(C(=O)N2CC(N3CCN(C(=O)c4nccs4)CC3)C2)n(C)c2ccc(Cl)cc12` [Cpd 696]: in experiment [1], the half-maximal inhibitory concentration (IC50) came out at 59 nM. At MGL, the 2-AG accumulation, % of vehicle control at 1 µM amounted to 444%. Besides, at mutant MGL (setting [3]), the Kd amounted to 0.063 µM.
In turn, `O=C(c1ccccc1)N1CCN(C2CN(C(=O)c3ccc4c(ccn4-c4cc(F)cc(F)c4)c3)C2)CC1` [Cpd 580] had an IC50 in experiment [1] of 69 nM. Besides, the 2-AG accumulation, % of vehicle control at 1 µM on MGL stood at 179%. In addition, the Kd at mutant MGL (setting [5]) stood at 0.118 µM.
In experiment [1], `Cc1cn(-c2ccc(F)cc2)c2ccc(C(=O)N3CCN(C4CN(C(=O)c5nccs5)C4)CC3)cc12` [Cpd 1089, 1-(4-Fluorophenyl)-3-methyl-5-({4-[1-(1,3-thiazol-2-ylcarbonyl)azetidin-3-yl]piperazin-1-yl}carbonyl)-1H-indole] returned an IC50 of 10 nM. Also, on MGL, the 2-AG accumulation, % of vehicle control at 1 µM was determined as 545%. Further, the Kd on mutant MGL (setting [4]) was 0.009 µM; on mutant MGL (setting [3]) it was 0.006 µM.
As for `O=C(c1ccc(-c2nc(-c3ccccc3)c(-c3ccccc3)[nH]2)cc1)N1CC(N2CCN(C(=O)c3nccs3)CC2)C1` [Cpd 1179], in experiment [1], the IC50 came to 73 nM. Also, the 2-AG accumulation, % of vehicle control at 1 µM at MGL turned out to be 996%. For the same compound, at mutant MGL (setting [4]), the Kd amounted to 0.005 µM.
With `Cc1c(C(=O)N2CC(N3CCN(C(=O)c4nccs4)CC3)C2)sc2nc(C(F)(F)F)ccc12` [Cpd 686], in experiment [1], it took 39 nM to reach half-maximal inhibition (IC50). At MGL, the 2-AG accumulation, % of vehicle control at 1 µM was 552%. Moreover, the Kd on mutant MGL (setting [5]) amounted to 0.002 µM.
For `Cn1ccc2cc(C(=O)N3CC(N4CCN(C(=O)c5nccs5)CC4)C3)cc(Br)c21` [Cpd 681] the same measures were 27 nM, 406% and 0.067 µM.
With `O=C(c1ccc(-c2cccc(C(F)(F)F)c2)cc1)N1CC(N2CCN(C(=O)c3ccc[nH]3)CC2)C1` [Cpd 1325], the IC50 in experiment [1] was < 5 nM. The 2-AG accumulation, % of vehicle control at 1 µM at MGL is 575%. In addition, the Kd on mutant MGL (setting [6]) was found to be 0.006 µM.
With `O=C(c1ccc2c(-c3ccc(F)cc3)c[nH]c2c1)N1CC(N2CCN(C(=O)c3nccs3)CC2)C1` [Cpd 1317, 3-(4-Fluorophenyl)-6-({3-[4-(1,3-thiazol-2-ylcarbonyl)piperazin-1-yl]azetidin-1-yl}carbonyl)-1H-indole], the IC50 in experiment [1] was < 5 nM. In addition, on MGL, the 2-AG accumulation, % of vehicle control at 1 µM stood at 722%. Also, on mutant MGL (setting [4]), the Kd came to 0.002 µM.
In the same order, the values of `O=C(c1ccc(-n2nc3c(c2-c2ccc(Cl)cc2)CCCC3)cc1)N1CC(N2CCN(C(=O)c3nccs3)CC2)C1` [Cpd 1327] are < 5 nM, 966% and 0.005 µM.
For `O=C(c1ccccc1)N1CCN(C2CN(C(=O)c3ccc4c(ccn4-c4cc(F)c(F)c(F)c4)c3)C2)CC1` [Cpd 569], in experiment [1], the IC50 worked out at 21 nM. Further, at MGL, the 2-AG accumulation, % of vehicle control at 1 µM stood at 198%. On mutant MGL (setting [5]), the Kd worked out at 0.059 µM.
Compound `Cc1ccc(-n2ccc3cc(C(=O)N4CC(N5CCN(C(=O)c6ccc[nH]6)CC5)C4)ccc32)cn1` [Cpd 1181, 1-(6-Methylpyridin-3-yl)-5-({3-[4-(1H-pyrrol-2-ylcarbonyl)piperazin-1-yl]azetidin-1-yl}carbonyl)-1H-indole] displayed an IC50 in experiment [1] of 77 nM. Moreover, the 2-AG accumulation, % of vehicle control at 1 µM at MGL came to 288%. Also, on mutant MGL (setting [3]), the Kd was 0.278 µM.
`O=C(c1ccc2c(c1)CCN(C(=O)c1ccc[nH]1)C2)N1CC(N2CCN(C(=O)c3nccs3)CC2)C1` [Cpd 690] came in with an IC50 in experiment [1] of 46 nM. On MGL, the 2-AG accumulation, % of vehicle control at 1 µM is 367%. Besides, the Kd at mutant MGL (setting [6]) was 0.104 µM.
For `Cc1cc(C(=O)N2CC(N3CCN(C(=O)c4cscn4)CC3)C2)ccc1-c1ccc(F)c(Cl)c1` [Cpd 257, 1-{1-[(3′-Chloro-4′-fluoro-2-methylbiphenyl-4-yl)carbonyl]azetidin-3-yl}-4-(1,3-thiazol-4-ylcarbonyl)piperazine] the same measures were < 5 nM, 285% and 0.0033 µM.
Turning to `Cn1cc(Cc2ccc(F)cc2)c2ccc(C(=O)N3CC(N4CCN(C(=O)c5ccc[nH]5)CC4)C3)cc21` [Cpd 1028], in experiment [1], the midpoint of inhibition, the IC50, lay at 16 nM. Moreover, the 2-AG accumulation, % of vehicle control at 1 µM on MGL amounted to 647%. The Kd on mutant MGL (setting [2]) came to 0.011 µM.
`N#Cc1ccccc1-n1ccc2cc(C(=O)N3CC(N4CCN(C(=O)c5nccs5)CC4)C3)ccc21` [Cpd 1109] yielded an IC50 in experiment [1] of 15 nM. In addition, the 2-AG accumulation, % of vehicle control at 1 µM at MGL is 680%. Also, the Kd on mutant MGL (setting [6]) is 0.022 µM.
For `O=C(c1ccc2c(c1)CCN(C(=O)C1CCC(C(F)(F)F)CC1)C2)N1CC(N2CCN(C(=O)c3nccs3)CC2)C1` (centres unmarked) [Cpd 685] the same measures were 33 nM, 756% and 0.067 µM.
Consider `Cn1nc(-c2cccc(F)c2)c2cc(C(=O)N3CC(N4CCN(C(=O)c5nccs5)CC4)C3)ccc21` [Cpd 1170], for which inhibition in experiment [1] was half-maximal at 59 nM (IC50). Also, the 2-AG accumulation, % of vehicle control at 1 µM at MGL was determined as 258%. The Kd on mutant MGL (setting [4]) amounted to 0.014 µM.
In the same order, the values of `CCCCc1ccc(C(=O)N2CC(N3CCN(C(=O)c4nccs4)CC3)C2)cc1` [Cpd 894] are < 5 nM, 534% and 0.006 µM.
For `O=C(c1nccs1)N1CCN(C2CN(C(=O)c3cc(-c4ccccc4)ccc3Cl)C2)CC1` [Cpd 1200] the same measures were 151 nM, 231% and 0.5 µM.
For `O=C(c1ccc(-c2ccc(C(F)(F)F)s2)cc1)N1CCN(C2CN(C(=O)c3nccs3)C2)CC1` [Cpd 1161] the same measures were 46 nM, 459% and 0.025 µM.
Compound `O=C(c1ccc2c(ccn2-c2ncccn2)c1)N1CC(N2CCN(C(=O)c3cscn3)CC2)C1` [Cpd 1201, 1-Pyrimidin-2-yl-5-({3-[4-(1,3-thiazol-4-ylcarbonyl)piperazin-1-yl]azetidin-1-yl}carbonyl)-1H-indole] returned an IC50 in experiment [1] of 151 nM. The 2-AG accumulation, % of vehicle control at 1 µM at MGL amounted to 475%. On mutant MGL (setting [4]), the Kd was determined as 0.179 µM.
